Experimental data from patent US4593104A, “2-halo-N-(azole-1-yl-methyl)-substituted acetanilides” (BASF Aktiengesellschaft, priority 1976, dated 1986).

Columns and labels:
Echin. c.g. [1] = test: preemergence treatment in the greenhouse, % damage; assay type: in vivo
Method in brief: (§1)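 Damage rated on a 0 (none) to 100 (no emergence or total destruction) scale over 4–6 weeks in the greenhouse (15–30 °C or 25–40 °C by species), at rates in kg/ha a.i. Pre-emergence sprays went onto sandy-loam surface right after sowing, pots then watered and hooded; post-emergence sprays hit unhooded plants at 3–10 cm.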

Solanum nigrum = test: preemergence treatment in the greenhouse, % damage; assay type: in vivo
Method in brief: as §1

Cyp. diff. = test: preemergence treatment in the greenhouse, % damage; assay type: in vivo
Method in brief: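 Sow shallow in sandy loam, spray actives (water vehicle) on soil at once for preemergence, irrigate, hood until rooting; or grow to 3–10 cm and spray unhooded for postemergence. Keep 4–6 weeks at 15–40 °C by species, then score damage 0–100.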

Brassica napus [2] = test: preemergence treatment in the greenhouse, % damage; assay type: in vivo
Method in brief: as §1

Setaria spp. [3] = test: preemergence treatment in the greenhouse, % damage; assay type: in vivo
Method in brief: as §1

Matric. spp. [4] = test: preemergence treatment in the greenhouse, % damage; assay type: in vivo
Method in brief: as §1

Bromus spp. = test: preemergence treatment in the greenhouse, % damage; assay type: in vivo
Method in brief: as §1

Alopec. myosur. [5] = test: preemergence treatment in the greenhouse, % damage; assay type: in vivo
Method in brief: as §1

Arach. hypog. [6] = test: preemergence treatment in the greenhouse, % damage; assay type: in vivo, Arachis hypogaea
From the text: (§2) The vessels employed were plastic flowerpots having a volume of 300 cm^3; the substrate was a sandy loam containing about 1.5% humus. The seeds of the test plants (see Table 1) were sown shallow, and separated according to species. In the case of Cyperus esculentus, pregerminated tubers were planted. In the preemergence treatment, the active ingredients were then immediately applied to the surface of the soil. They were suspended or emulsified in water as the vehicle, and sprayed through atomizing nozzles. After the agents had been applied, the vessels were lightly sprinkler-irrigated to set germination and growth going, and to activate the chemical agents. The vessels were then covered with transparent plastic hoods until the plants had taken root. This cover ensured uniform germination of the test plants (to the extent that this was not impaired by the chemicals), and prevented readily volatile substances from evaporating.
(§3) For postemergence treatment, the plants were first grown to a height of from 3 to 10 cm, depending on their habit, before treated. Hoods were not placed on the pots. The experiments were set up in the greenhouse, hotter areas (25° to 40° C.) being preferred for heat-loving species, and 15° to 30° C. for plants from moderate climates. The experiments were carried out for from 4 to 6 weeks. During this period the plants were tended and their reaction to the various treatments was assessed. The following tables contain the substances investigated, the application rates in kg/ha of active ingredient, and the test plant species. Assessments were made on a 0 to 100 scale, 0 denoting no damage or normal emergence, and 100 denoting no emergence or complete destruction of at least the visible plant parts.

Zea mays = test: preemergence treatment in the greenhouse, % damage; assay type: in vivo
Method in brief: as §1

Carth. tinct. = test: tolerance by various oil crops in the greenhouse (Table 8), % damage; assay type: in vivo, Carthamus tincotius
From the text: as §2
For postemergence treatment, the plants were first grown to a height of from 3 to 10 cm, depending on their habit, before treated. Hoods were not placed on the pots. The experiments were set up in the greenhouse, hotter areas (25° to 40° C.) being preferred for heat-loving species, and 15° to 30° C. for plants from moderate climates. […] During this period the plants were tended and their reaction to the various treatments was assessed. […]

Glyc. max [7] = test: as above; assay type: in vivo, Glycine max; conditions: varieties: Dare, Lee 68, SRF 450
From the text: as §2, §3

Seta. spp. = test: herbicidal action in the greenhouse (Table 8), % damage; assay type: in vivo
From the text: as §2, §3

Amar. retro. [8] = test: as above; assay type: in vivo
From the text: as §2, §3

Solan. nigrum. = test: as above; assay type: in vivo
From the text: as §2, §3

Brassica napus [9] = test: tolerance by various oil crops in the greenhouse (Table 8), % damage; assay type: in vivo
From the text: as §2, §3

Arach. hypog. [10] = test: as above; assay type: in vivo, Arachis hypogaea
From the text: as §2, §3

Cyper. escul. = test: postemergence application in the greenhouse, % damage; assay type: in vivo, Cyperus esculentus
Method in brief: as §1

Setaria spp. [11] = test: as above; assay type: in vivo
Method in brief: as §1

Matric. spp. [12] = test: as above; assay type: in vivo
Method in brief: as §1

Avena fat. = test: as above; assay type: in vivo
Method in brief: as §1

Chrys. seget. [13] = test: as above; assay type: in vivo
Method in brief: as §1

Alopec. myosur. [14] = test: as above; assay type: in vivo
Method in brief: as §1

Stell. med. = test: as above; assay type: in vivo
Method in brief: as §1

Amar. retro. [15] = test: preemergence application in the open, % damage; assay type: in vivo
Method in brief: (§4)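 Damage on a 0 to 100 scale was rated at set intervals during several weeks after preemergence treatment of small field plots. Actives went on in water as emulsions or suspensions, immediately or up to 3 days after sowing, onto sandy loam of pH 5–6 holding 1–1.5% humus.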

Echin. c.g. [16] = test: preemergence application in the open, % damage; assay type: in vivo
Method in brief: as §4

Anth./Matric. = test: preemergence application in the open, % damage; assay type: in vivo; conditions: 2.0 kg/ha
Method in brief: as §4

Chenop. spp. = test: preemergence application in the open, % damage; assay type: in vivo
Method in brief: as §4

Brassica napus [17] = test: preemergence application in the open, % damage; assay type: in vivo; conditions: 2.0 kg/ha
Method in brief: as §4

Stellaria media = test: preemergence application in the open, % damage; assay type: in vivo; conditions: 2.0 kg/ha
Method in brief: as §4

Lamium spp. = test: preemergence application in the open, % damage; assay type: in vivo; conditions: 2.0 kg/ha
Method in brief: as §4

Galins. spp. = test: preemergence application in the open, % damage; assay type: in vivo
Method in brief: as §4

Alopec. myosur. [18] = test: preemergence application in the open, % damage; assay type: in vivo; conditions: 2.0 kg/ha
Method in brief: as §4

Euph. gen. = test: preemergence treatment in the greenhouse, % damage; assay type: in vivo; conditions: 0.25 kg/ha
Method in brief: as §1

Amar. retro. [19] = test: preemergence treatment in the greenhouse, % damage; assay type: in vivo; conditions: one value printed for two rates (0.125 0.25 kg/ha)
Method in brief: as §1

Poa annua = test: preemergence treatment in the greenhouse, % damage; assay type: in vivo
Method in brief: as §1

Chrys. seget. [20] = test: preemergence treatment in the greenhouse, % damage; assay type: in vivo; conditions: 0.25 kg/ha
Method in brief: as §1

Sorgh. halep. = test: preemergence treatment in the greenhouse, % damage; assay type: in vivo
Method in brief: as §1

Glyc. max [21] = test: preemergence application in the open, % damage; assay type: in vivo, Glycine max
Protocol: The experiments were carried out on small plots. The soil was a sandy loam having a pH of from 5 to 6 and containing from 1 to 1.5% humus. The treatment was preemergence, the active ingredients being applied immediately or at the latest 3 days after sowing. The crop plants were sown in rows. The weed flora was made up of the most widely varying species and was natural; the weed flora depended on the time of the year and in part on the crop (e.g., spring-germinating, summer-germinating). The substances were emulsified or suspended in water as the vehicle, and applied by means of a motor-driven plot spray mounted on a hitch. When no rain fell, the plots were watered to ensure germination and growth of the crop plants and weeds. All the experiments were run for several weeks. Over this period, assessments were made at certain intervals on the 0 to 100 scale.

Cc1ncn(CN(C(=O)CCl)c2c(C)cccc2C)n1
% damage (Echin. c.g. [1]; 1.0 kg/ha): 100%
% damage (Solanum nigrum; 1.0 kg/ha): 100%
% damage (Cyp. diff.; 1.0 kg/ha): 100%
% damage (Brassica napus [2]; 1.0 kg/ha): 5%
% damage (Setaria spp. [3]; 1.0 kg/ha): 100%
% damage (Matric. spp. [4]; 1.0 kg/ha): 92%
% damage (Bromus spp.; 1.0 kg/ha): 98%
% damage (Alopec. myosur. [5]; 1.0 kg/ha): 97%
% damage (Arach. hypog. [6]; 1.0 kg/ha): 0%

COc1cc(C)n(CN(C(=O)CCl)c2c(C)cccc2C)n1
% damage (Zea mays; 0.5 kg/ha): 20%
% damage (Echin. c.g. [1]; 0.5 kg/ha): 90%
% damage (Solanum nigrum; 0.5 kg/ha): 85%
% damage (Cyp. diff.; 0.5 kg/ha): 100%
% damage (Brassica napus [2]; 0.5 kg/ha): 5%
% damage (Setaria spp. [3]; 0.5 kg/ha): 98%
% damage (Matric. spp. [4]; 0.5 kg/ha): 95%
% damage (Bromus spp.; 0.5 kg/ha): 95%
% damage (Alopec. myosur. [5]; 0.5 kg/ha): 95%
% damage (Arach. hypog. [6]; 0.5 kg/ha): 0%

Cc1cccc(C)c1N(Cn1ncnn1)C(=O)CCl
% damage (Zea mays; 2.0 kg/ha): 15%
% damage (Echin. c.g. [1]; 2.0 kg/ha): 100%
% damage (Setaria spp. [3]; 2.0 kg/ha): 95%
% damage (Matric. spp. [4]; 2.0 kg/ha): 100%
% damage (Bromus spp.; 2.0 kg/ha): 98%
% damage (Alopec. myosur. [5]; 2.0 kg/ha): 98%
% damage (Arach. hypog. [6]; 2.0 kg/ha): 15%

Cc1cccc(C)c1N(Cn1cncn1)C(=O)CCl [Compound 127]
% damage (Carth. tinct.; 0,5 kg/ha): 0%
% damage (Carth. tinct.; 1,0 kg/ha): 0%
% damage (Glyc. max [7]; 0,5 kg/ha): 0%
% damage (Glyc. max [7]; 1,0 kg/ha): 0%
% damage (Glyc. max [7]; 2,0 kg/ha): 0%
% damage (Seta. spp.; 0,5 kg/ha): 95%
% damage (Seta. spp.; 1,0 kg/ha): 100%
% damage (Seta. spp.; 2,0 kg/ha): 100%
% damage (Amar. retro. [8]; 0,5 kg/ha): 82%
% damage (Amar. retro. [8]; 1,0 kg/ha): 95%
% damage (Amar. retro. [8]; 2,0 kg/ha): 100%
% damage (Solan. nigrum.; 0,5 kg/ha): 70%
% damage (Solan. nigrum.; 1,0 kg/ha): 90%
% damage (Solan. nigrum.; 2,0 kg/ha): 100%
% damage (Brassica napus [9]; 0,5 kg/ha): 0%
% damage (Brassica napus [9]; 1,0 kg/ha): 0%
% damage (Brassica napus [9]; 2,0 kg/ha): 0%
% damage (Arach. hypog. [10]; 0,5 kg/ha): 0%
% damage (Arach. hypog. [10]; 1,0 kg/ha): 0%
% damage (Arach. hypog. [10]; 2,0 kg/ha): 10%

Cc1cccc(C)c1N(Cn1cccn1)C(=O)CCl [Compound 5]
% damage (Cyper. escul.; 1.0 kg/ha): 70%
% damage (Cyper. escul.; 2.0 kg/ha): 72%
% damage (Setaria spp. [11]; 1.0 kg/ha): 82%
% damage (Setaria spp. [11]; 2.0 kg/ha): 85%
% damage (Matric. spp. [12]; 1.0 kg/ha): 95%
% damage (Matric. spp. [12]; 2.0 kg/ha): 95%
% damage (Avena fat.; 1.0 kg/ha): 90%
% damage (Avena fat.; 2.0 kg/ha): 92%
% damage (Chrys. seget. [13]; 1.0 kg/ha): 98%
% damage (Chrys. seget. [13]; 2.0 kg/ha): 98%
% damage (Alopec. myosur. [14]; 1.0 kg/ha): 80%
% damage (Alopec. myosur. [14]; 2.0 kg/ha): 90%
% damage (Stell. med.; 1.0 kg/ha): 95%
% damage (Stell. med.; 2.0 kg/ha): 98%
% damage (Amar. retro. [15]; 0,5 kg/ha): 100%
% damage (Amar. retro. [15]; 1,0 kg/ha): 100%
% damage (Echin. c.g. [16]; 0,5 kg/ha): 100%
% damage (Echin. c.g. [16]; 1,0 kg/ha): 100%
% damage (Anth./Matric.): 100%
% damage (Chenop. spp.; 0,5 kg/ha): 69%
% damage (Chenop. spp.; 1,0 kg/ha): 85%
% damage (Brassica napus [17]): 7.5%
% damage (Stellaria media): 100%
% damage (Lamium spp.): 100%
% damage (Galins. spp.; 0,5 kg/ha): 91%
% damage (Galins. spp.; 1,0 kg/ha): 100%
% damage (Alopec. myosur. [18]): 95%
% damage (Euph. gen.): 100%
% damage (Amar. retro. [19]): 100%
% damage (Poa annua; 0.125 kg/ha): 100%
% damage (Poa annua; 0.25 kg/ha): 100%
% damage (Solanum nigrum; 0.25 kg/ha): 100%
% damage (Cyp. diff.; 0.125 kg/ha): 100%
% damage (Cyp. diff.; 0.25 kg/ha): 100%
% damage (Chrys. seget. [20]): 100%
% damage (Bromus spp.; 0.125 kg/ha): 90%
% damage (Bromus spp.; 0.25 kg/ha): 95%
% damage (Sorgh. halep.; 0.125 kg/ha): 95%
% damage (Sorgh. halep.; 0.25 kg/ha): 95%
% damage (Glyc. max [21]; 0,5 kg/ha): 0%
% damage (Glyc. max [21]; 1,0 kg/ha): 4%
